Biological target: JNK3 kinase (Homo sapiens, UniProt P53779)
Test: JNK3 SPA assay (phosphorylation of GST-c-Jun)
Format: biochemical
Settings: 3.33 μM ATP, GST-c-Jun substrate, 30 minutes at room temperature
Procedure: JNK1, JNK2, JNK3—SPA Assay
A typical assay for testing the activity of compounds to inhibit JNK1, JNK2 and JNK3 enzymes is as follows: • 1. Compound is dissolved in DMSO to a convenient concentration and this is diluted in 10% DMSO to a five times concentrate of the desired starting concentration (frequently 1:100). • 2. 10 μl of 500 mM EDTA is added to alternative wells of the Opti-plate row, which will receive kinase reaction plus DMSO. This creates the negative control. • 3. For the JNK2 and JNK3 assay, compounds are prepared in six 2-fold dilutions with water and each concentration is tested in duplicate. For the JNK1 assay compounds are prepared in four 5-fold dilutions with water which are tested in triplicate. Controls are treated identically. • 4. 20 μl per well of each compound concentration is transferred to an Opti-plate, in duplicate. • 5. 30 μl (JNK2/3 SPA) or 50 μl (JNK1 SPA) of substrate solution (25 mM HEPES pH 7.5, 10 mM magnesium acetate with 3.33 μM ATP (JNK2/3) or 2 μM ATP (JNK1), approximately 7.5 kBq [γ-33P] ATP, GST-c-Jun, in water) is added to each well. • 6. 50 μl (JNK2/3 SPA) or 30 μl (JNK1 SPA) of kinase solution (JNK in 25 mM HEPES pH 7.5, 10 mM Mg Acetate) is added to each well.
• 7. […] Plates are sealed and incubated for 30 minutes at room temperature, centrifuged for 10 minutes at 2500 g and counted. • 10. […]

Sequence of JNK3 kinase (P53779 whole entry): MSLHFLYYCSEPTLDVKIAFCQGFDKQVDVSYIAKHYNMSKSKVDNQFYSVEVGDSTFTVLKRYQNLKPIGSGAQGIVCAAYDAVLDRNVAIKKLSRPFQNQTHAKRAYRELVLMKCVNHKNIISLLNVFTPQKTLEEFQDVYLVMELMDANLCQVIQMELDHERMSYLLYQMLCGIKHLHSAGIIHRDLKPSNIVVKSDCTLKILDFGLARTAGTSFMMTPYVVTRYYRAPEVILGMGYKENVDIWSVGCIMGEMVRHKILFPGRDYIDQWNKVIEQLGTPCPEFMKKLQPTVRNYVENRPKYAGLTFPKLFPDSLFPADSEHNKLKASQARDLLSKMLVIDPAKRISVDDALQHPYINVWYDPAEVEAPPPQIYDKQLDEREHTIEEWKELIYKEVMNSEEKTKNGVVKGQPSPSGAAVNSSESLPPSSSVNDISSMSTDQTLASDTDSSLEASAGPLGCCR

SMILES | IC50 [nM]
CN(C)c1ccc(-c2cnc3[nH]ccc3c2)cc1 [Compound 1] | 1200
c1csc(-c2cnc3[nH]ccc3c2)c1 [Compound 2] | < 500

From patent US7291630B2, “Azaindoles as inhibitors of c-Jun N-terminal kinases” (Eisai Co., Ltd., priority 2002, dated 2007)
